According to article PMC9369794 (Molecules, 2022):

Experiments:
Water dispersibility = assay type: physicochemical; conditions: distilled water, sonication
Experimental: About 2 mg of the examined substance was dispersed in 40 mL of distilled water and the suspension was sonicated for 2 min. The addition of water was continued with 10 mL portions, after each portion the mixture was sonicated for 2 min. This process was continued till a homogenous solution was observed by naked eye. Then, the solution was let to stand for an hour to inspect any precipitate formation, but no changes occurred in any of the cases.

[1] = FRAP assay for the antioxidant capacity; parameters: key to FRAP: slope of concentration-absorbance line divided by Trolox slope; conditions: for FRAP: stock in THF, acetate buffer pH 3.0, 37 °C, 15 min, ratio of slopes to trolox (melatonin in EtOH)
Method in brief: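 Fe^3+→Fe^2+ reduction by antioxidants (THF stocks) in FRAP reagent (FeCl3/TPTZ, 300 mM acetate buffer pH 3.0), 15 min at 37 °C in the dark. Absorbance at 600 nm measured in triplicate at 0-17.5 μM final. FRAP value = slope of absorbance-concentration line divided by Trolox slope.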

[2] = Kinetic solubility in PBS pH 7.4; assay type: physicochemical; conditions: aqueous buffer, kinetic from dmso stock, kinetic solubility after 2 h, at 37 °C in PBS, nominal 250 μM, read-out: Kin.Sol.
Experimental: On a 96-well polypropylene plate (Greiner bio-one) 7.5 μL stock solutions were added to 292.5 μL PBS (pH 7.4) to make a solution with the nominal concentration of 250 μM. For each sample 3 replicates were measured. […] After that, each sample was transferred into a filter plate (MSSBLPC, Multiscreen Filter plate, Merck kGaA) and filtered (Vaccum Manifold, Merck kGaA, Darmstadt, Germany). The filtrates were transferred into UV-Star microplates (Greiner bio-one) and acetonitrile (AcN) was added to each well to avoid precipitation. The final solvent ratio was AcN:PBS 70:30. UV-Vis spectra were collected for each replicate by a Multiskan Sky UV-plate reader (Thermo Scientific, Waltham, MA, USA) in a wavelength range of 250–700 nm, with 1 nm steps. After blank substraction, the kinetic solubility of the samples was determined based on absorption at λmax using a 5-point calibration curve for each sample recorded in 70:30 AcN:PBS solvent.
Limit of detection (LOD) and limit of quantification (LOQ) were calculated with Equations (1) and (2) respectively, based on UV-Vis spectral data:(1) LOD=3.3×σ/s (2) LOQ=10×σ/s where the σ value in the equations stands for the standard deviation of the absorption base line at 700 nm (where no sample-specific absorption was observed). The s value is the slope of the calibration curve recorded for each sample based on their absorption at λmax (Table 4.)

| SMILES | Water Dispersibility (Water dispersibility) | FRAP value relative to the succinates of the other carotenoids ([1]; acetate buffer pH 3.0) | FRAP [1] | solubility kinetic at 2 h [2] [µM] |
| --- | --- | --- | --- | --- |
| CC1=C(/C=C/C(C)=C/C=C/C(C)=C/C=C/C=C(C)/C=C/C=C(\C)COC(=O)CCC(=O)O)C(C)(C)CCC1 [Compound 6, 8′-Apo-β-carotenol succinate] | 1.5 mg/100 mL | 1.5–2 times | 0.276 | 52.3 ± 2.4 |
| CC1=C(/C=C/C(C)=C/C=C/C(C)=C/C=C/C=C(C)/C=C/C=C(C)/C=C/C2=C(C)C[C@@H](OC(=O)CCC(=O)O)CC2(C)C)C(C)(C)C[C@H](OC(=O)CCC(=O)O)C1 [Compound 7, Zeaxanthin bissuccinate] | 1.3 mg/100 mL | – | 0.155 | 0.6 ± 0.1 |
| CC1=C(/C=C/C(C)=C/C=C/C(C)=C/C=C/C=C(C)/C=C/C=C(C)/C=C/C2=C(C)C[C@@H](OC(=O)CCC(=O)O)CC2(C)C)C(C)(C)CCC1 [Compound 8, β-Cryptoxanthin succinate] | less than 0.5 mg/100 mL | – | 0.181 | 1.3 ± 0.1 |
